Laboratory results: ChEMBL document CHEMBL1201862, “PubChem BioAssay data set” (2004)
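Compound exposure: 48 hours, 5 concentrations, 96-well plates. Abbreviation: GI50, concentration required for 50% inhibition of growth.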 Active and inactive are the calls of the source. Rule as the data show it: active = GI50 up to about 1.1 µM and inactive = higher.

Legend:
Test in all cases: NCI tumour cell line growth inhibition, 48 h
786-0 = test system: 786-0
ACHN = test system: ACHN
CCRF-CEM = test system: CCRF-CEM
EKVX = test system: EKVX
HCT-15 = test system: HCT-15
KM12 = test system: KM12
NCI-H23 = test system: NCI-H23
NCI-H460 = test system: NCI-H460
NCI-H522 = test system: NCI-H522
RPMI-8226 = test system: RPMI-8226
RXF 393 = test system: RXF 393
SF-268 = test system: SF-268
SN12C = test system: SN12C
SNB-19 = test system: SNB-19
U-251 = test system: U-251
A498 = test system: A498
CAKI-1 = test system: CAKI-1

COC1(OC)c2ccccc2C2(O)c3ccccc3C(=O)C12 (stereo not given)
GI50 (786-0): 52.6 µM (inactive)
GI50 (ACHN): 34.1 µM (inactive)
GI50 (CCRF-CEM): 22.5 µM (inactive)
GI50 (EKVX): 48.8 µM (inactive)
GI50 (HCT-15): 25.3 µM
GI50 (KM12): 39.9 µM (inactive)
GI50 (NCI-H23): 47.4 µM (inactive)
GI50 (NCI-H460): 26.4 µM (inactive)
GI50 (NCI-H522): 10.2 µM (inactive)
GI50 (RPMI-8226): 5.79 µM (inactive)
GI50 (RXF 393): > 100 µM (inactive)
GI50 (SF-268): > 100 µM (inactive)
GI50 (SN12C): 60.8 µM (inactive)
GI50 (SNB-19): 74.5 µM (inactive)
GI50 (U-251): 43 µM (inactive)

CC1=NN2C(c3ccc(C)cc3)=CSC2=NC(C)(C)C1
GI50 (786-0): > 100 µM (inactive)
GI50 (A498): > 100 µM (inactive)
GI50 (ACHN): > 100 µM (inactive)
GI50 (CCRF-CEM): > 100 µM (inactive)
GI50 (EKVX): > 100 µM (inactive)
GI50 (HCT-15): > 100 µM
GI50 (KM12): > 100 µM (inactive)
GI50 (NCI-H23): > 100 µM (inactive)
GI50 (NCI-H460): > 100 µM (inactive)
GI50 (NCI-H522): > 100 µM (inactive)
GI50 (RPMI-8226): > 100 µM (inactive)
GI50 (RXF 393): > 100 µM (inactive)
GI50 (SF-268): > 100 µM (inactive)
GI50 (SN12C): > 100 µM (inactive)
GI50 (SNB-19): > 100 µM (inactive)
GI50 (U-251): > 100 µM (inactive)

CCN(C(C)=N)c1ccccc1
GI50 (786-0): > 100 µM (inactive)
GI50 (A498): 37.5 µM (inactive)
GI50 (ACHN): 61.5 µM (inactive)
GI50 (CAKI-1): 95.1 µM (inactive)
GI50 (CCRF-CEM): > 100 µM (inactive)
GI50 (EKVX): 52.8 µM (inactive)
GI50 (HCT-15): > 100 µM
GI50 (KM12): > 100 µM (inactive)
GI50 (NCI-H23): 54.8 µM (inactive)
GI50 (NCI-H460): > 100 µM (inactive)
GI50 (NCI-H522): 50.2 µM (inactive)
GI50 (RPMI-8226): 27 µM (inactive)
GI50 (RXF 393): > 100 µM (inactive)
GI50 (SF-268): > 100 µM (inactive)
GI50 (SN12C): 70 µM (inactive)
GI50 (SNB-19): 78.7 µM (inactive)
GI50 (U-251): > 100 µM (inactive)

O=C(Nc1ccccc1)c1ccc(Cl)c([N+](=O)[O-])c1
GI50 (786-0): 4.85 µM (inactive)
GI50 (A498): 21.8 µM (inactive)
GI50 (CAKI-1): 6.05 µM (inactive)
GI50 (CCRF-CEM): 4.14 µM (inactive)
GI50 (EKVX): 28.4 µM (inactive)
GI50 (HCT-15): 7.24 µM
GI50 (KM12): 3.09 µM (inactive)
GI50 (NCI-H23): 23 µM (inactive)
GI50 (NCI-H460): 6.31 µM (inactive)
GI50 (NCI-H522): 6.79 µM (inactive)
GI50 (RPMI-8226): 3.88 µM (inactive)
GI50 (RXF 393): 21.7 µM (inactive)
GI50 (SF-268): > 10 µM (inactive)
GI50 (SN12C): 5.21 µM (inactive)
GI50 (SNB-19): 15.5 µM (inactive)
GI50 (U-251): 19.5 µM (inactive)

CC(=O)NNc1nc(C)c(C(/C=C/c2ccc(Cl)cc2)=N/NC(=O)C[N+](C)(C)C)s1
GI50 (786-0): > 100 µM (inactive)
GI50 (A498): > 100 µM (inactive)
GI50 (ACHN): > 100 µM (inactive)
GI50 (CAKI-1): > 100 µM (inactive)
GI50 (CCRF-CEM): > 100 µM (inactive)
GI50 (EKVX): > 100 µM (inactive)
GI50 (HCT-15): > 100 µM
GI50 (KM12): > 100 µM (inactive)
GI50 (NCI-H23): > 100 µM (inactive)
GI50 (NCI-H460): > 100 µM (inactive)
GI50 (NCI-H522): > 100 µM (inactive)
GI50 (RXF 393): > 100 µM (inactive)
GI50 (SF-268): > 100 µM (inactive)
GI50 (SNB-19): > 100 µM (inactive)

O=C(NN1C(=O)CS(=O)(=O)C1c1cccc(F)c1)c1ccncc1 (stereo not given)
GI50 (786-0): > 100 µM (inactive)
GI50 (A498): > 100 µM (inactive)
GI50 (ACHN): > 100 µM (inactive)
GI50 (CAKI-1): > 100 µM (inactive)
GI50 (HCT-15): > 100 µM
GI50 (KM12): > 100 µM (inactive)
GI50 (NCI-H23): > 10 µM (inactive)
GI50 (NCI-H460): > 100 µM (inactive)
GI50 (NCI-H522): > 100 µM (inactive)
GI50 (RPMI-8226): > 100 µM (inactive)
GI50 (RXF 393): > 100 µM (inactive)
GI50 (SF-268): > 100 µM (inactive)
GI50 (SN12C): > 100 µM (inactive)
GI50 (SNB-19): > 100 µM (inactive)
GI50 (U-251): > 10 µM (inactive)

Cc1ccc(Nc2nc(C)c(C(/C=C/c3ccc4c(c3)OCO4)=N/Nc3ccc([N+](=O)[O-])cc3[N+](=O)[O-])s2)c([N+](=O)[O-])c1
GI50 (786-0): 91.2 µM (inactive)
GI50 (ACHN): 21.5 µM (inactive)
GI50 (CAKI-1): 25.1 µM (inactive)
GI50 (CCRF-CEM): 28.2 µM (inactive)
GI50 (EKVX): 24.5 µM (inactive)
GI50 (HCT-15): 25.8 µM
GI50 (KM12): 24 µM (inactive)
GI50 (NCI-H23): 33.2 µM (inactive)
GI50 (NCI-H460): 41 µM (inactive)
GI50 (NCI-H522): 14.2 µM (inactive)
GI50 (RXF 393): 38 µM (inactive)
GI50 (SF-268): 53.2 µM (inactive)
GI50 (SN12C): 28 µM (inactive)
GI50 (SNB-19): 83 µM (inactive)
GI50 (U-251): 49.2 µM (inactive)

COc1cc(C(C)c2cc3c(cc2OCCNC(=O)COc2cc4c(cc2C(C)c2cc(OC)c(OC)c(OC)c2)OCO4)OCO3)cc(OC)c1OC (stereo not given)
GI50 (786-0): 49.8 µM (inactive)
GI50 (A498): > 100 µM (inactive)
GI50 (ACHN): 63.2 µM (inactive)
GI50 (CAKI-1): > 100 µM (inactive)
GI50 (CCRF-CEM): 30.5 µM (inactive)
GI50 (EKVX): 29.6 µM (inactive)
GI50 (HCT-15): 87.3 µM
GI50 (KM12): > 100 µM (inactive)
GI50 (NCI-H23): > 100 µM (inactive)
GI50 (NCI-H460): 22.2 µM (inactive)
GI50 (NCI-H522): 29.5 µM (inactive)
GI50 (RXF 393): > 100 µM (inactive)
GI50 (SF-268): 50.4 µM (inactive)
GI50 (SN12C): 60 µM (inactive)
GI50 (SNB-19): > 100 µM (inactive)
GI50 (U-251): > 100 µM (inactive)

COC(=O)C1=C(C(=O)OC)C2=S(SC3=C2CCCC3)S1 (stereo not given)
GI50 (786-0): 4.11 µM (inactive)
GI50 (ACHN): 28.1 µM (inactive)
GI50 (CAKI-1): 20 µM (inactive)
GI50 (CCRF-CEM): 2.98 µM (inactive)
GI50 (EKVX): > 100 µM (inactive)
GI50 (HCT-15): 13.3 µM
GI50 (KM12): 20.8 µM (inactive)
GI50 (NCI-H23): 24.1 µM (inactive)
GI50 (NCI-H460): 28.1 µM (inactive)
GI50 (NCI-H522): 2.2 µM (inactive)
GI50 (RPMI-8226): 3.26 µM (inactive)
GI50 (RXF 393): 13.3 µM (inactive)
GI50 (SF-268): 37.6 µM (inactive)
GI50 (SN12C): 25.5 µM (inactive)
GI50 (SNB-19): > 100 µM (inactive)
GI50 (U-251): 19.6 µM (inactive)
